Where “and” joins values, the source holds several entries; their conditions need not be identical. Equal entries are not always repeated. Where two headings read alike, the source gives them in different places.
Tests used:
[1] = Dissolution of 63-salts in 0.9% NaCl solution (LC-MS/MS); assay type: physicochemical
From the text: [63^−] = 9.81 × 10^−7 mol^2/L^2. […] However, starting from the cesium salt, the concentration of drug dissolved in the physiological solution maintained high values for at least one hour (around 50 × 10^−6 mol/L, with a peak higher than 100 × 10^−6 mol/L) and, for a further two hours, these values were higher than those obtained with the sodium salt. From this, it can be deduced that the 63-cesium salt would be very suitable for the extemporaneous preparation of injectable solutions in the presence of high concentrations of sodium ions.
An excess amount (~4 to 5 mg) of each salt of compound 63 was added to 5 mL of a 0.9% NaCl solution, kept under constant agitation, and thermostated at room temperature (21 ± 2 °C). At fixed time points, an aliquot was withdrawn from the solution, and centrifuged (3000 g, 10 min, RT) to separate undissolved compound and the supernatant, after dilution with MeOH, was analyzed by LC-MS/MS. An Accela UHPLC system coupled with a TSQ Quantum Access Max triple quad mass spectrometer (Thermo Fisher, Waltham, MA, USA), was employed to quantify dissolved 63 over time. UHPLC separation occurred by gradient elution, employing a Synergy Fusion C18 80Å RP-column (2.0 × 100 mm, 4 µm; Phenomenex, Bologna, Italy). Mobile phases A and B were acetonitrile and water, both with 0.1% v/v formic acid added. The following elution conditions were employed: linear gradient from 60 to 95%A in 5 min; 95% A between 5 and 8 min, returning to 60% A in 0.5 min with 2.5 min reconditioning time. Total run time: 11 min. The flow rate was 0.35 mL/min and injection volume was 10 µL. Heated electrospray (H-ESI) ion source voltage was set at 4.0 KV; capillary temperature at 270 °C. Nitrogen served both as sheath and auxiliary gas at 35 psi and 15 psi, respectively. Argon at a pressure of 1.5 mtorr was employed as collision gas. H-ESI ion source operated in positive ion mode (ESI+) and acquisition occurred in multiple reaction monitoring (MRM). Tube lens voltages (TL) and collision energies (CE) for each parent-product ion transition were optimized by flow injection analysis of 5 µM solutions of each standard in MeOH. Compound 63: m/z = 399.2 [M+H]^+ → m/z = 135.1, 107.1, 93.1 (TL = 98 V; CE = 20, 33, 37 eV, respectively). Its 1-hydroxy derivative, compound 4-(1-butyl)-4,5-dihydro-7-hydroxy-N-(1-hydroxyadamantan-3-yl)-2-methyl-5-oxo-2H-pyrazolo[4,3-b]pyridine-6-carboxamide, was employed as Internal Standard: m/z = 415.2 [M+H]^+ → m/z = 266.1, 248.1 (TL = 99 V; CE = 14, 31 eV). Calibration curves were prepared in MeOH in the 1000–10 nM concentration range starting and coefficients of determination of regression models were >0.99. Xcalibur software version 2.2 (Thermo Fisher Scientific, Inc., Waltham, MA, USA) was employed for both data acquisition and processing. […]

human CB2 receptor [2] = target: T1, human CB2 receptor (Homo sapiens, UniProt P34972); settings: Figure 1, earlier ligands of the group; cited from earlier work
T1 sequence (P34972 whole entry): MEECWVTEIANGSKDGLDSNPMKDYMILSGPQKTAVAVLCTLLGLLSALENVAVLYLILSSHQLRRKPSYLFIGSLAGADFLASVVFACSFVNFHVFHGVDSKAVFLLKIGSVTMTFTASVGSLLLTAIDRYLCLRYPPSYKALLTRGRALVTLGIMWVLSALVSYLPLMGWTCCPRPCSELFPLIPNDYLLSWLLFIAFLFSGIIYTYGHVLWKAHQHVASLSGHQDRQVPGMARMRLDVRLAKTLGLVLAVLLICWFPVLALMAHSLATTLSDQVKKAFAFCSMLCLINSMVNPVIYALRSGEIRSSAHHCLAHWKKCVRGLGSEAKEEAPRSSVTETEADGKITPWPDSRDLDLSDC

human CB2 receptor [3] = target: T1, human CB2 receptor; test: Competition binding assay, displacement of [3H]-CP-55,940, CB2R; set-up: logKiCB2 (nM) Exp.: unit not given here
Description: (§1) Binding at equilibrium was performed as previously reported. […] All compounds were tested following the procedure described by the manufacturer (Perkin Elmer, Italy). […] Ki values were calculated by applying the Cheng–Prusoff equation to the IC50 values (obtained by GraphPad) for the displacement of the bound radioligand by increasing concentrations of the test compound.

[4] = target: human recombinant CB1 receptor (Homo sapiens, UniProt P21554); test: Competition binding assay, displacement of [3H]-CP-55,940, CB1R
Chain of human recombinant CB1 receptor (P21554 whole entry): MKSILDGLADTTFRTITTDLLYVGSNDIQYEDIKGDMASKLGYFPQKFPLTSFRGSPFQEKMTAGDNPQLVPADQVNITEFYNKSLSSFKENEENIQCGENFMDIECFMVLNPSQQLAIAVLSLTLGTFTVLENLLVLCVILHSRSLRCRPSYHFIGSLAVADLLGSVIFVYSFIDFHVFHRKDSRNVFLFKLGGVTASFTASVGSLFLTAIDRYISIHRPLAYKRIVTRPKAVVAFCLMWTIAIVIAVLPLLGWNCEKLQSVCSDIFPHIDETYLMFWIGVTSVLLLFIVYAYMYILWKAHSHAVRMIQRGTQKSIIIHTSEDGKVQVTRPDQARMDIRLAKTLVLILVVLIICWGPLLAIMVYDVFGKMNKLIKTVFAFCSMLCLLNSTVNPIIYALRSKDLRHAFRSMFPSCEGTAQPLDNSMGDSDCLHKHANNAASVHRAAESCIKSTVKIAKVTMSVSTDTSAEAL
Description: as §1

human CB2 receptor [5] = target: T1, human CB2 receptor; test: cAMP Hunter functional assay in NKH-477-stimulated CHO-K1 cells overexpressing CB2R; settings: for Functional behavior at CB2R: agonist mode / antagonist mode with JWH-133 4 µM challenge
[6] = CB2R Ki, membranes from HEK cells, [3H]CP-55,940, mean ± SD, at least three experiments in duplicate
[7] = membranes from HEK cells, [3H]CP-55,940, mean ± SD, at least three experiments in duplicate, read-out: CB1R Ki

| Compound | SI (selectivity index for CB2R, Ki(CB1R)/Ki(CB2R)) (human CB2 receptor [3]) | Ki (human CB2 receptor [3]; [6]) | Ki [4, 7] | Functional behavior at CB2R (human CB2 receptor [5]) | logKiCB2 (nM) Exp. (human CB2 receptor [3]; log of experimental Ki) | further results |
| --- | --- | --- | --- | --- | --- | --- |
| CCCCn1c(=O)c(C(=O)NC23CC4CC(CC(C4)C2)C3)c(O)c2nn(C)cc21.[Cs] [63-cesium salt, N-(Adamantan-1-yl)-4-(1-butyl)-7-hydroxy-2-methyl-5-oxo-4,5-dihydro-2H-pyrazolo[4,3-b]pyridine-6-carboxamide Cesium Salt] | – | – | – | – | – | Concentration of dissolved 63 maintained for at least one hour ([1]; 0.9% NaCl): around 50 × 10^−6 mol/L; Peak concentration of dissolved 63 ([1]; 0.9% NaCl): higher than 100 × 10^−6 mol/L; Time to decrease to the value consistent with the Ks of the sodium salt ([1]; 0.9% NaCl): 200 min |
| CCCCn1c(=O)c(C(=O)NC23CC4CC(CC(C4)C2)C3)c(O)c2nn(C)cc21.[Na] [63-sodium salt, N-(Adamantan-1-yl)-4-(1-butyl)-7-hydroxy-2-methyl-5-oxo-4,5-dihydro-2H-pyrazolo[4,3-b]pyridine-6-carboxamide Sodium Salt] | – | – | – | – | – | Concentration of dissolved 63, average over time points ([1]; excess salt in 0.9% NaCl, room temperature): 6.37 µM |
| CCCCCn1c(=O)c(C(=O)NC23CC4CC(CC(C4)C2)C3)c(O)c2nn(C)cc21 [Compound 3, reference compound] | – | – | – | – | – | Selectivity Index (human CB2 receptor [2]): 167 |
| CCCCn1c(=O)c(C(=O)NC2CCCc3ccccc32)c(O)c2nn(C)cc21 (stereo not shown) [Compound 18, 4-(1-Butyl)-7-hydroxy-2-methyl-5-oxo-N-(1,2,3,4-tetrahydronaphthalen-1-yl)-4,5-dihydro-2H-pyrazolo[4,3-b]pyridine-6-carboxamide] | >578 | < 20 nM and 17.3 nM | > 10 µM | antagonist/inverse agonist behavior | – | Ki (human CB2 receptor [3]; logKiCB2 (nM) Exp., log of experimental Ki): 24 nM |
| Cn1cc2c(n1)c(O)c(C(=O)NC13CC4CC(CC(C4)C1)C3)c(=O)n2Cc1ccccc1 [Compound 26, N-(Adamantan-1-yl)-4-benzyl-7-hydroxy-2-methyl-5-oxo-4,5-dihydro-2H-pyrazolo[4,3-b]pyridine-6-carboxamide] | – | < 20 nM and 0.48 nM | – | antagonist/inverse agonist behavior | – | melting point: 180 to 183 °C |
| CCCCn1c(=O)c(C(=O)NC23CC4CC(CC(C4)C2)C3)c(O)c2nn(CC)cc21 [Compound 35, N-(Adamantan-1-yl)-4-(1-butyl)-2-ethyl-7-hydroxy-5-oxo-4,5-dihydro-2H-pyrazolo[4,3-b]pyridine-6-carboxamide] | 227 | < 20 nM and 0.45 nM | 0.102 ± 0.0152 µM | antagonist/inverse agonist behavior | −0.35 | – |
| CCCCCn1c(=O)c(C(=O)NC23CC4CC(CC(C4)C2)C3)c(O)c2nn(C)c(C)c21 [Compound 55, N-(Adamantan-1-yl)-7-hydroxy-2,3-dimethyl-5-oxo-4-(1-pentyl)-4,5-dihydro-2H-pyrazolo[4,3-b]pyridine-6-carboxamide] | – | < 20 nM and 2.11 nM | > 10 µM | antagonist/inverse agonist behavior | 0.32 | CB1 receptor activity in words [4]: not active at all; melting point: 67 °C |
| CC(C)n1c(=O)c(C(=O)NC23CC4CC(CC(C4)C2)C3)c(O)c2c1cnn2C [Compound 57] | >184 | 54.3 ± 12.3 nM | – | typical agonist behavior | 1.73 | Ki [4]: > 10 µM; EC50 (human CB2 receptor [5]): 1590 nM; Emax (human CB2 receptor [5]; agonist mode, 25 µM NKH477): 84.05 |

Source: article PMC10343475, “Systematic Modification of the Substitution Pattern of the 7-Hydroxy-5-oxopyrazolo[4,3-b]pyridine-6-carboxamide Scaffold Enabled the Discovery of New Ligands with High Affinity and Selectivity for the Cannabinoid Type 2 Receptor” (Molecules, 2023)
